The text below walks through data of publication PMC8705783, “The Effect of Conjugation with Octaarginine, a Cell-Penetrating Peptide on Antifungal Activity of Imidazoacridinone Derivative” (International Journal of Molecular Sciences, 2021).

pIC50: −log10 of the molar value. In brackets after ≈: the same amount, converted by molar mass. Where a name gives a salt, the structure may show the parent alone. Where only a bound is given, the exact number is not on record here.

One series concerns Candida krusei ATCC 6258. In words: microbe, parasite or virus in culture. The following applies: Pichia kudriavzevii, ATCC6258, 24 h, pH 7.
For series [1], the system named is Candida albicans ATCC 10231. The series can be described thus: microbe, parasite or virus in culture.
For series [2], the system named is Candida parapsilosis ATCC 22019. In words: microbe, parasite or virus in culture. The following applies: Lodderomyces parapsilosis, ATCC22019, 24 h, pH 7.
In series [3] the test system is Saccharomyces cerevisiae ATCC 9763. The series can be described thus: microbe, parasite or virus in culture. The following applies: ATCC9763, 24 h, pH 7.
In series [4] the test system is Candida glabrata ATCC 90030. In words: microbe, parasite or virus in culture. The following applies: Nakaseomyces glabratus, ATCC90030, 24 h, pH 7.
Another series relates to reference strains. In words: Antifungal activity, summary over reference strains. Type of series: cell-based. Details: key to Antifungal Activity (level): (−) Means no antifungal activity; (±) low activity; (+) moderate activity; (++) high activity at the concentration mentioned. The following applies: for Antifungal Activity (level): Table 3; for antifungal activity: as reported in Table 1.

The next series addresses yeast topoisomerase II (Saccharomyces cerevisiae, UniProt P06786). In words: Yeast topoisomerase II relaxation assay. Type of series: biochemical. Conditions: supercoiled pBR322, tested at 1-200 μM. As for the experimental part: Due to the known activity of acridine and acridone derivatives as human topoisomerase inhibitors widely analysed for cancer chemotherapy, we decided to analyse the influence of Compound 1 as well as its R8 conjugate on the fungal equivalent of that enzyme. The relaxation of supercoiled plasmid DNA by yeast topoisomerase II (yTOPO II) was studied in the presence of different concentrations of both compounds.
The inhibition of yeast topoisomerase II was analysed according to the relaxation assay kit from Inspiralis (Inspiralis Limited, Norwich, UK). Briefly, 250 ng of supercoiled pBR322 DNA (Thermo Fisher Scientific, Waltham, MA, USA), 1 mM ATP (Inspiralis Limited, UK), and 1–200 μM of the analysed compound were mixed with reaction buffer (1 mM Tris-HCl (pH 7.9), 10 mM KCl, 0.5 mM MgCl2, 0.2 % (by volume) glycerol). The reaction was initiated by the addition of an enzyme, allowed to proceed at 30 °C for 30 min and terminated by addition of 40% (m/V) sucrose, 100 mM Tris-HCl pH 8, 10 mM EDTA, and 0.5 mg mL^−1 Bromophenol Blue. Two-step extraction with chloroform:isoamyl alcohol (24:1, by volume) and butanol water was performed and mixtures were analysed on 1% agarose gel in 1 × TAE buffer, 3h, 4.5 V cm^−1. Gel was stained in GelRed 3 × staining solution (Biotium, Fremont, CA, USA) for 30 min and photographed with Gel Doc XR+Gel Documentation System (Bio-Rad: Hercules, CA, USA).

The next series has as its system human topoisomerase II. Conditions: cited from earlier work.
A further series has as its system Candida albicans. Also on record: method as in PMID 23563951; key to Antifungal Activity (level): (−) Means no antifungal activity; (±) low activity; (+) moderate activity; (++) high activity at the concentration mentioned. The following applies: cited from earlier work.
In a further series the test system is Candida albicans F5. The series can be described thus: microbe, parasite or virus in culture.
Another series concerns Candida albicans F2. The series can be described thus: microbe, parasite or virus in culture.
The test system of the next series is Candida albicans B3. In words: microbe, parasite or virus in culture.
Another series concerns Candida albicans Gu4. In words: microbe, parasite or virus in culture.
Another series has as its system Candida albicans Gu5. In words: microbe, parasite or virus in culture.
The test system of the next series is Candida albicans B4. In words: microbe, parasite or virus in culture.
In the next series the test system is C. albicans ATCC 10231. Type of series: cell-based, Candida albicans. Conditions: 1/4 × MIC to 4 × MIC, RPMI medium. The method, then: Killing kinetics analysis was performed as described previously. […] After an appropriate time of incubation, 10 μL was withdrawn and spread on YPG agar plates. The number of colony-forming units (CFUs) was determined after overnight incubation of the plates at 37 °C. The killing kinetics analysis was performed with the GraphPad Prism 8 software (GraphPad Software Inc., San Diego, CA, USA).

Sequence of yeast topoisomerase II (P06786 whole entry): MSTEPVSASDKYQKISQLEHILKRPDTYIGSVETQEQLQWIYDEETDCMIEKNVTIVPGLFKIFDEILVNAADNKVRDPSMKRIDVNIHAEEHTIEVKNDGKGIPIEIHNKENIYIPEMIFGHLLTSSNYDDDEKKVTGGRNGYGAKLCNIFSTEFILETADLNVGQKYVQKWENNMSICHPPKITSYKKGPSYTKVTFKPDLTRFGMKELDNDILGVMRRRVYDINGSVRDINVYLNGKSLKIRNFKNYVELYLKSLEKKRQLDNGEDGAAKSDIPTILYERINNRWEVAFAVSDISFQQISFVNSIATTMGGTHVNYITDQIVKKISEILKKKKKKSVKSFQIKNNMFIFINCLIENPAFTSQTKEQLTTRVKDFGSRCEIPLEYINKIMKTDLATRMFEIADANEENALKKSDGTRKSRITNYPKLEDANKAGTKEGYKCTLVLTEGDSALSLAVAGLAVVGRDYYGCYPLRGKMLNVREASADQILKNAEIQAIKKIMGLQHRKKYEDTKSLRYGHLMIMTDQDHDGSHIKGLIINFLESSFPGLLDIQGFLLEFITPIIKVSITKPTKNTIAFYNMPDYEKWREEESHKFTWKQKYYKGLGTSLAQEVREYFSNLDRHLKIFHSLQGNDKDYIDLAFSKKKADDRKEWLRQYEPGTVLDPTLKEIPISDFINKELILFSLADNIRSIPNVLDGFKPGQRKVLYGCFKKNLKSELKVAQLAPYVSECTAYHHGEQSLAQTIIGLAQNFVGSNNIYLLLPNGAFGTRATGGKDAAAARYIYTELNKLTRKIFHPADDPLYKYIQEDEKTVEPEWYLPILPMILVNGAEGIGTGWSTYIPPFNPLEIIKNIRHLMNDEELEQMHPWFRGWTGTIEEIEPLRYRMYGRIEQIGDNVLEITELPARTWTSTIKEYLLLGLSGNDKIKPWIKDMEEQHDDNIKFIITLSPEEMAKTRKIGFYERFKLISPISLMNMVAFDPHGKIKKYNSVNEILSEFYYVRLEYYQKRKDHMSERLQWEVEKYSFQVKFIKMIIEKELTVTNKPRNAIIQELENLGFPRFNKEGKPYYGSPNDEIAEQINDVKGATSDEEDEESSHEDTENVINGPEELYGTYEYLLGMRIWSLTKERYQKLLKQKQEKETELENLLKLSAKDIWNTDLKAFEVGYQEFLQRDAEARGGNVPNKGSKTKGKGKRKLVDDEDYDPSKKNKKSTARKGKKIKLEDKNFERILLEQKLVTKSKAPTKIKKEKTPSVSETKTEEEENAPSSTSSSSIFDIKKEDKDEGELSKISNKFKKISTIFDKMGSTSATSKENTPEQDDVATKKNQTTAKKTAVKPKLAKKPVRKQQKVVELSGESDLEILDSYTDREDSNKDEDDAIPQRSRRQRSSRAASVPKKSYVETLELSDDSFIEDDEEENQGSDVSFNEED

In the case of `NCCNc1ccc2ncn3c4ccc(O)cc4c(=O)c1c23` (as salt: hydrochloride) [Compound 1, 5-((2-Aminoethyl)amino)-8-hydroxy-6H-imidazo[4,5,1-de]acridin-6-one], the melting point was in the range of 332 to 334 °C.

`Cc1ccc2c(c1)c(=O)c1c(NCCCN(C)C)ccc3nnn2c31` (as salt: hydrochloride) [Compound C-1296, 5-[-(3′-Dimethylamino)propylamino]-8-methyl-6H-[1,2,3]-triazolo[4,5,l-de]acridin-6-one] registered a melting point of 120 to 122 °C.

`CN(C)CCCNc1ccc2nnn3c4ccc(O)cc4c(=O)c1c23` (as salt: hydrochloride) [Compound C-1305, 5-[-(3′-Dimethylamino)propylamino]-8-hydroxy-6H-[1,2,3]-triazolo[4,5,l-de]acridin-6-one] registered a melting point of 228 to 230 °C.

As for `CCNCCNc1ccc2nnn3c4ccc(O)cc4c(=O)c1c23` (as salt: hydrochloride) [Compound C-1410, 5-[2′-(Ethyl)-ethylenediamine]-8-hydroxy-6H-[1,2,3]-triazolo[4,5,l-de]acridin-6-one], the melting point stood at 300 °C.

Regarding `Cc1ccc2c(c1)c(=O)c1c(NCCCN(C)C)ccc3nnn2c31` [Compound C-1296, 5-[-(3′-Dimethylamino)propylamino]-8-methyl-6H-[1,2,3]-triazolo[4,5,l-de]acridin-6-one], the MIC90 against Candida krusei ATCC 6258 is > 64 µg/mL; in series [1] (ATCC10231, 24 h, pH 7) it was > 64 µg/mL; in series [2], > 64 µg/mL; in series [3], 32 µg/mL (≈ 95.4 µM); in series [4], > 64 µg/mL. For the same molecule, in the series on reference strains, the “Antifungal Activity (level)” value is “±”. Moreover, in the series with reference strains, the “antifungal activity” value is listed as “no antifungal activity was observed”.

Take `CN(C)CCCNc1ccc2nnn3c4ccc(O)cc4c(=O)c1c23` [Compound C-1305, 5-[-(3′-Dimethylamino)propylamino]-8-hydroxy-6H-[1,2,3]-triazolo[4,5,l-de]acridin-6-one]: the MIC90 is > 64 µg/mL in the series on Candida krusei ATCC 6258; > 64 µg/mL in [1] (ATCC10231, 24 h, pH 7); > 64 µg/mL in [2]; > 64 µg/mL in series [3]; > 64 µg/mL in series [4]. In addition, at yeast topoisomerase II, the “concentration that totally inhibited yeast topoisomerase II-mediated relaxation” value was found to be 50 µM. The “Antifungal Activity (level)” value in the series with reference strains is listed as “−”. Moreover, in the series with reference strains, the “antifungal activity” value was “no antifungal activity was observed”. The “concentration that totally inhibited human topoisomerase II-mediated relaxation” value with human topoisomerase II was 10 µM. At human topoisomerase II (read-out: concentration that diminished the relaxation reaction by 50%), the pIC50 was 5.60.

With `CCN(CC)CCNc1ccc2ncn3c4ccc(OC)cc4c(=O)c1c23` [Compound C-1330], the “Antifungal Activity (level)” value with Candida albicans (Table 3, activity data published previously ref 8) is reported as “+”. Moreover, in the series on Candida albicans, the “antifungal activity” value is recorded as “showed phototoxic antifungal activity”.

In the case of `CCNCCNc1ccc2nnn3c4ccc(O)cc4c(=O)c1c23` [Compound C-1410, 5-[2′-(Ethyl)-ethylenediamine]-8-hydroxy-6H-[1,2,3]-triazolo[4,5,l-de]acridin-6-one], the MIC90 against Candida krusei ATCC 6258 is > 64 µg/mL; in series [1] (ATCC10231, 24 h, pH 7), > 64 µg/mL; in series [2], > 64 µg/mL; in series [3] it was > 64 µg/mL; in series [4], > 64 µg/mL. In the series with reference strains, the “Antifungal Activity (level)” value was “−”. In addition, in the series on reference strains, the “antifungal activity” value was “no antifungal activity was observed”.

Take `OC(Cn1cncn1)(Cn1cncn1)c1ccc(F)cc1F` [Fluconazole]: the MIC90 in series [1] (ATCC10231) is 8 µg/mL (≈ 26.1 µM); in the series on Candida albicans F5 it was > 64 µg/mL; in the series with Candida albicans F2, 8 µg/mL (≈ 26.1 µM); against Candida albicans B3 it was 1 µg/mL (≈ 3.27 µM); against Candida albicans Gu4, 4 µg/mL (≈ 13.1 µM); in the series with Candida albicans Gu5, > 64 µg/mL. The MIC90 with Candida albicans B4 came out at 16 µg/mL (≈ 52.2 µM). For the same molecule, in the series on C. albicans ATCC 10231, the “killing kinetics, kind of effect” value is “fungistatic”.
